# Structures can show the parent of a compound that is named as a salt. Where two headings read alike, the source gives them in different places. Where a SMILES comes first, the peptide text is derived from it. Bridges are numbered along the chain shown (N, C = ends). [ ]: non-standard residue; d: D form. The star is where a group is joined. X1 = CC[C@H](C)CCCCC(=O)*; Dab = NCC[C@H](N)C(=O)O
# Columns and labels:
# [1] = system: fibrin-induced microglia activation; assay: Image-based assay of fibrin-induced microglia activation (HTS and dose response); assay type: cell-based, rat; conditions: for inhibition at 10 µM: Rattus norvegicus, Microglia, read-out: Fibrin % inhibition
# [2] = system: LPS-induced microglia activation; assay: Image-based assay of LPS-induced microglia activation (HTS and dose response); assay type: cell-based, rat; conditions: for inhibition at 10 µM: Rattus norvegicus, Microglia, read-out: LPS % inhibition
# [3] = system: fibrin- and LPS-induced microglia activation; assay: cells; assay type: cell-based, rat
# [4] = system: primary rat microglia; assay: Cell toxicity (dead cells, size <150 μm2) in LPS assay
# [5] = system: primary rat microglia; assay: Cell toxicity (dead cells, size <150 μm2) in coated fibrin (cFib) assay;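 note: share of dead cells sized under 150 µm2 at 10 µM in fibrin-stimulated microglia HTS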
# [6] = primary microglia HTS, fibrin stimulation, increased cell size (>800 μm^2) as marker of activation
# [7] = 48 h, primary microglia HTS, LPS stimulation, increased cell size (>800 μm^2) as marker of activation
# [8] = quadrant by fibrin and LPS inhibition in HTS of 1907 compounds
# [9] = primary microglia HTS, LPS stimulation, decreased size (<150 μm^2) as marker of toxicity
# [10] = primary microglia HTS, fibrin stimulation, decreased size (<150 μm^2) as marker of toxicity
# [11] = primary microglia HTS, fibrin stimulation, activation = cell size >800 μm2
# [12] = primary microglia HTS, LPS stimulation, activation = cell size >800 μm2
# [13] = primary microglia HTS, LPS stimulation, toxicity = cell size <150 μm2
# [14] = primary microglia HTS, fibrin stimulation, toxicity = cell size <150 μm2
# [15] = primary HTS, 10 μM, fibrin-stimulated primary microglia
# [16] = primary HTS, 10 μM, LPS-stimulated primary microglia
# [17] = primary HTS, 10 μM, LPS assay, dead cells size <150 μm2
# [18] = primary HTS, 10 μM, fibrin assay, dead cells size <150 μm2
# [19] = 48 h, primary microglia HTS, LPS stimulation, activation = cell size >800 μm2
# [20] = primary microglia HTS, 10 μM, fibrin-stimulated, cell size >800 μm^2 as marker of activation
# [21] = primary microglia HTS, 10 μM, LPS-stimulated, cell size >800 μm^2 as marker of activation
# [22] = HTS of 1907 compounds, quadrant by fibrin and LPS inhibition
# [23] = primary microglia HTS, 10 μM, LPS assay, cell size <150 μm^2 as marker of toxicity
# [24] = primary microglia HTS, 10 μM, fibrin assay, cell size <150 μm^2 as marker of toxicity
# [25] = primary microglia HTS, LPS stimulation, increased cell size (>800 μm^2) as marker of activation
compound,measurement,setting,value
CCOC(=O)CC(SP(=S)(OC)OC)C(=O)OCC (centres unmarked) [Malathion],inhibition at 10 µM,[1]; [6],-8%
same,inhibition at 10 µM,[2]; [7],8%
same,Quadrant (FIG. 5b),[3]; [8],Q4
same,LPS % cell toxicity,[4]; [9],0%
same,Fibrin % cell toxicity,[5]; [10],0%
CC(O)CN1CCN(CC(=O)[O-])CCN(CC(=O)[O-])CCN(CC(=O)[O-])CC1.[Gd+3] (centres unmarked) [Gadoteridol],Fibrin % inhibition,[1]; [11],−18%
same,LPS % inhibition,[2]; [12],15%
same,Quadrant (FIG. 5b),[3]; [8],Q4
same,LPS % cell toxicity,[4]; [13],0%
same,Fibrin % cell toxicity,[5]; [14],1%
CC(=O)OCC1=C(C(=O)[O-])N2C(=O)[C@@H](NC(=O)CCCC(N)C(=O)O)[C@H]2SC1.[Na+] (some centres unmarked) [Cephalosporin C Sodium],Fibrin % inhibition,[1]; [15],−34%
same,LPS % inhibition,[2]; [16],8%
same,Quadrant (FIG. 5b),"[3]; primary HTS, 10 μM",Q4
same,LPS % cell toxicity,[4]; [17],0%
same,Fibrin % cell toxicity,[5]; [18],1%
C[C@H]1COc2c(N3CCN(C)CC3)c(F)cc3c(=O)c(C(=O)O)cn1c23 [Levofloxacin],inhibition at 10 µM,[1]; [11],12%
same,inhibition at 10 µM,[2]; [19],31%
same,Quadrant (FIG. 5b),[3]; [8],Q4
same,LPS % cell toxicity,[4]; [13],0%
same,Fibrin % cell toxicity,[5]; [14],1%
N#Cc1ccc2[nH]cc(CCCCN3CCN(c4ccc5oc(C(N)=O)cc5c4)CC3)c2c1 [Vilazodone],inhibition at 10 µM,[1]; [20],1%
same,inhibition at 10 µM,[2]; [21],27%
same,Quadrant (FIG. 5b),[3]; [22],Q4
same,LPS % cell toxicity,[4]; [23],1%
same,Fibrin % cell toxicity,[5]; [24],1%
CCCNC(=O)NS(=O)(=O)c1ccc(Cl)cc1 [Chlorpropamide],inhibition at 10 µM,[1]; [15],3%
same,inhibition at 10 µM,[2]; [16],17%
same,Quadrant (FIG. 5b),"[3]; primary HTS, 10 μM",Q4
same,LPS % cell toxicity,[4]; [17],1%
same,Fibrin % cell toxicity,[5]; [18],1%
CN(C)C(=O)Oc1cccc([N+](C)(C)C)c1 [Neostigmine],inhibition at 10 µM,[1]; [6],-15%
same,inhibition at 10 µM,[2]; [7],15%
same,Quadrant (FIG. 5b),[3]; [8],Q4
same,LPS % cell toxicity,[4]; [9],0%
same,Fibrin % cell toxicity,[5]; [10],0%
CC(C)(C)NCC(O)c1cc(O)cc(O)c1 (centres unmarked) [Terbutaline],inhibition at 10 µM,[1]; [20],39%
same,inhibition at 10 µM,[2]; [21],28%
same,Quadrant (FIG. 5b),[3]; [22],Q4
same,LPS % cell toxicity,[4]; [23],0%
same,Fibrin % cell toxicity,[5]; [24],1%
CCCCN1CCCCC1C(=O)Nc1c(C)cccc1C (centres unmarked) [Bupivacaine],inhibition at 10 µM,[1]; [15],12%
same,inhibition at 10 µM,[2]; [16],23%
same,Quadrant (FIG. 5b),"[3]; primary HTS, 10 μM",Q4
same,LPS % cell toxicity,[4]; [17],0%
same,Fibrin % cell toxicity,[5]; [18],1%
CC[C@H](C)CCCCC(=O)N[C@@H](CCN)C(=O)N[C@H](C(=O)N[C@@H](CCN)C(=O)N[C@H]1CCNC(=O)[C@H]([C@@H](C)O)NC(=O)[C@H](CCN)NC(=O)[C@H](CCN)NC(=O)[C@H](CC(C)C)NC(=O)[C@@H](Cc2ccccc2)NC(=O)[C@H](CCN)NC1=O)[C@@H](C)O [Polymyxin B1] (X1-[Dab]T[Dab][Dab][Dab][dF]L[Dab][Dab]T; lactam 4-C),Fibrin % inhibition,[1]; [6],−21%
same,LPS % inhibition,[2]; [25],60%
same,Quadrant (FIG. 5b),[3]; [8],Q1
same,LPS % cell toxicity,[4]; [9],1%
same,Fibrin % cell toxicity,[5]; [10],1%
Capreomycin Sulfate,Fibrin % inhibition,[1]; [15],−32%
same,LPS % inhibition,[2]; [16],3%
same,Quadrant (FIG. 5b),"[3]; primary HTS, 10 μM",Q4
same,LPS % cell toxicity,[4]; [17],0%
same,Fibrin % cell toxicity,[5]; [18],1%
CCCCC(CC)CN1CN(CC(CC)CCCC)CC(C)(N)C1 (centres unmarked) [Hexetidine],inhibition at 10 µM,[1]; [11],-85%
same,inhibition at 10 µM,[2]; [19],19%
same,Quadrant (FIG. 5b),[3]; [8],Q4
same,LPS % cell toxicity,[4]; [13],0%
same,Fibrin % cell toxicity,[5]; [14],1%
CO/N=C1\CN(c2nc3c(cc2F)c(=O)c(C(=O)O)cn3C2CC2)CC1CN (centres unmarked) [Gemifloxacin],inhibition at 10 µM,[1]; [11],-34%
same,inhibition at 10 µM,[2]; [19],6%
same,Quadrant (FIG. 5b),[3]; [8],Q4
same,LPS % cell toxicity,[4]; [13],0%
same,Fibrin % cell toxicity,[5]; [14],0%
N=C(N)/N=C(\N)N1CCOCC1 [Moroxydine Hydrochloride],inhibition at 10 µM,[1]; [6],-22%
same,inhibition at 10 µM,[2]; [7],4%
same,Quadrant (FIG. 5b),[3]; [8],Q4
same,LPS % cell toxicity,[4]; [9],0%
same,Fibrin % cell toxicity,[5]; [10],1%
Mepartricin,Fibrin % inhibition,[1]; [6],6%
same,LPS % inhibition,[2]; [25],−1%
same,Quadrant (FIG. 5b),[3]; [8],Q4
same,LPS % cell toxicity,[4]; [9],0%
same,Fibrin % cell toxicity,[5]; [10],1%
CCC[C@@H]1C[C@@H](C(=O)N[C@@H]([C@H]2O[C@H](SC)[C@H](O)[C@@H](O)[C@H]2O)[C@@H](C)O)N(C)C1 [Lincomycin Hydrochloride],Fibrin % inhibition,[1]; [11],−4%
same,LPS % inhibition,[2]; [12],14%
same,Quadrant (FIG. 5b),[3]; [8],Q4
same,LPS % cell toxicity,[4]; [13],0%
same,Fibrin % cell toxicity,[5]; [14],1%
